Assay results reported in PMC6467784 (Journal of medicinal chemistry, 2019).
“And” between values parts separate entries of the source, which are not always exact repeats. Identical values can stand only once. Like-named read-outs stand apart in the source and are kept apart here. One block for each compound: values may come before it.

Tests used:
hA1AR [1] = molecular target: T1, hA1AR (Homo sapiens, UniProt P30542); test: hA1AR radioligand binding, CHO cell membranes; settings: for hA1AR selectivity compared to hA3AR: ratio of binding Ki
T1 sequence (P30542 1-326): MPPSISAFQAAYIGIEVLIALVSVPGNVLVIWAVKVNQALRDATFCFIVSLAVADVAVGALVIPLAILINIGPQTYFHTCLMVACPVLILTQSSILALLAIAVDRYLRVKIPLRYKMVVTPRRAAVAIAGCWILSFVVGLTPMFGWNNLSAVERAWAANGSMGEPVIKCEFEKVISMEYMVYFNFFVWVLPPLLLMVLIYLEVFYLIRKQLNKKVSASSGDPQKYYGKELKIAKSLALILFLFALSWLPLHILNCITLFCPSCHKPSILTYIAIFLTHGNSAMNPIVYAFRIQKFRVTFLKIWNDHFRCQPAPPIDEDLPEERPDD

wild-type C57BL/6J mice [2] = test: Body temperature and locomotor activity by telemetry after ip. dosing; assay type: in vivo, mouse; settings: for Tb: 3 mg/kg ip., average from dosing to 60 min, mean ±SD; for Effect on Tb in WT mice: ip., up to 3 or 10 mg/kg
A1AR, A3AR [3] = settings: ref [30]; cited from earlier work
wild-type C57BL/6J mice [4] = settings: average from dosing to 60 min, ref [30], cited from earlier work
[5] = tested on: off-target receptors and transporters; test: PDSP off-target screen; assay type: binding, human
hA2BAR = molecular target: T2, hA2BAR (Homo sapiens, UniProt P29275); test: hA2BAR radioligand binding using [3H]54; settings: for inhibition at 10 µM: read-out: hA2BAR % binding inhibition at 10 μM
T2 sequence (P29275 1-332): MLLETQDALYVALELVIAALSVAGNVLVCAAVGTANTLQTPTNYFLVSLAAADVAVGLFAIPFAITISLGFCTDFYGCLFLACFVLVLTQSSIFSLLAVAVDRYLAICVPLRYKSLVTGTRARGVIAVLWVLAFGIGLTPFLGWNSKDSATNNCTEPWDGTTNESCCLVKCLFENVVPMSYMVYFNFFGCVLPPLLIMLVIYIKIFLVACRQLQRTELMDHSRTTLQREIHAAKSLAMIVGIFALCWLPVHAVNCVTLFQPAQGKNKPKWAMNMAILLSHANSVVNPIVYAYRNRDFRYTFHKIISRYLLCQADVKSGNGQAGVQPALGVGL

mA1AR = molecular target: T3, mA1AR (Mus musculus, UniProt Q60612); test: mA1AR radioligand binding; settings: ratio of binding Ki
T3 sequence (Q60612 1-326): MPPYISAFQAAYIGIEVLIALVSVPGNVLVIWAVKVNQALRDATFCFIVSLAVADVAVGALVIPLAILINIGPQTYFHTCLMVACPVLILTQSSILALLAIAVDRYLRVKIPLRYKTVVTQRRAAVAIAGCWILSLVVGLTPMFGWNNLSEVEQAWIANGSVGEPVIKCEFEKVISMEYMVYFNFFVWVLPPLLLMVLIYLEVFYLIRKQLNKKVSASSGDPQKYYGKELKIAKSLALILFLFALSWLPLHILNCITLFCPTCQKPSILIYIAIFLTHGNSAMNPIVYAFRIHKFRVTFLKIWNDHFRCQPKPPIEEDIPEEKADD

hA1AR [6] = molecular target: T1, hA1AR; settings: human (h); at 10 μM; ref [33],[34]; cited from earlier work
mice = test: Hypothermia after intracerebroventricular infusion; assay type: in vivo, mouse; settings: for Tb reached after icv. administration: 5 μg injected icv. (equivalent to […])
bovine A1AR = settings: read-out: Ki at bovine A1AR; ref [36],[37]; cited from earlier work
anesthetized rat = test: Cardiovascular effects in the anesthetized rat; assay type: in vivo; settings: 0.02 mg/kg, iv., preliminary
[7] = Stability in simulated gastric fluid; assay type: in vitro ADME
Rat liver microsomes = assay type: in vitro ADME
Mouse liver microsomes = assay type: in vitro ADME
Stability in rat plasma = assay type: in vitro ADME
A1AR, A3AR [8] = test: Hypothermia in A1AR, A3AR and A1AR/A3AR deficient mice; assay type: in vivo, mouse; settings: 3 mg/kg ip.; for Receptor dependence of hypothermia: A1AR KO, A3AR KO, double KO mice; for ARs causing hypothermia: WT vs AR-KO mice (Figure 2)
1A2 CYP isozyme = 1A2 CYP isozyme (Homo sapiens, UniProt P05177); test: CYP 1A2 inhibition; assay type: in vitro ADME
[9] = Stability in simulated intestinal fluid; assay type: in vitro ADME
[10] = Stability in mouse plasma; assay type: in vitro ADME; settings: mouse (m)
HEP-G2 hepatocytes = test: Toxicity in HEP-G2 hepatocytes; assay type: cell-based
Human liver microsomes = assay type: in vitro ADME; settings: human
hCYP P450 2D6 = hCYP P450 2D6 (Homo sapiens, UniProt P10635); test: CYP 2D6 inhibition; assay type: in vitro ADME
hCYP P450 2C9 = hCYP P450 2C9 (Homo sapiens, UniProt P11712); test: CYP 2C9 inhibition; assay type: in vitro ADME
[11] = Stability in human plasma; assay type: in vitro ADME; settings: human (h)
hCYP P450 3A4 = hCYP P450 3A4 (Homo sapiens, UniProt P08684); test: CYP 3A4 inhibition; assay type: in vitro ADME
CACO-2 cells = test: CACO-2 permeability and efflux; assay type: in vitro ADME
2C19 CYP isozyme = 2C19 CYP isozyme (Homo sapiens, UniProt P33261); test: CYP 2C19 inhibition; assay type: in vitro ADME
[12] = Pharmacokinetics in the male rat; assay type: in vivo; settings: 3 mg/kg p.o.

Sequence of hCYP P450 2D6 (P10635 whole entry): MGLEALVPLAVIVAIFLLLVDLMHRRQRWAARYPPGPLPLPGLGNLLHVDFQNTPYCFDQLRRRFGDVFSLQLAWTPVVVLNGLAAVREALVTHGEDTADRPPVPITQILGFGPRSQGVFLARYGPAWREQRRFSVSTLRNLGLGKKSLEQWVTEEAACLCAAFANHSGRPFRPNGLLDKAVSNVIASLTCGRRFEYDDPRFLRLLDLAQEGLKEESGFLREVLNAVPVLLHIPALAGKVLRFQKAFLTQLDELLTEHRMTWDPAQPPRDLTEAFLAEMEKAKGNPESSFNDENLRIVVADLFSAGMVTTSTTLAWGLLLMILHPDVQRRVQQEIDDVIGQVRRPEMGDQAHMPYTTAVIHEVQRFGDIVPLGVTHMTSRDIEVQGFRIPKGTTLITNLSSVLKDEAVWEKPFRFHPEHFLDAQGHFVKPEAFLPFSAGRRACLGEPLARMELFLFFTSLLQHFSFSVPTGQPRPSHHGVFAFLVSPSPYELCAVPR
Sequence of 1A2 CYP isozyme (P05177 whole entry): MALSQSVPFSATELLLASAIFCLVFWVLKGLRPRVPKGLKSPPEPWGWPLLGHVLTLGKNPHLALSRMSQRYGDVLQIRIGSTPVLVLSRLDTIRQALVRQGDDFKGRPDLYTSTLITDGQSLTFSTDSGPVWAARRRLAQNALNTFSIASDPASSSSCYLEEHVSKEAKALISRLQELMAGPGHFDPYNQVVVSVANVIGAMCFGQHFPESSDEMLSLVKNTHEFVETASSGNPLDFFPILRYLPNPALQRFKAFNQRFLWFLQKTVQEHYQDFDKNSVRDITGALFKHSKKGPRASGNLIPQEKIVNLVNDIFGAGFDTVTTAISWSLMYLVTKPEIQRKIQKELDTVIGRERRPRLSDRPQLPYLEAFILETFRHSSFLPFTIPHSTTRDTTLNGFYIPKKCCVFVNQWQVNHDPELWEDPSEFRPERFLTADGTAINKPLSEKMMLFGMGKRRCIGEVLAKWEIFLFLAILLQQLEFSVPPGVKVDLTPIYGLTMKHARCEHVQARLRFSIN
Sequence of 2C19 CYP isozyme (P33261 whole entry): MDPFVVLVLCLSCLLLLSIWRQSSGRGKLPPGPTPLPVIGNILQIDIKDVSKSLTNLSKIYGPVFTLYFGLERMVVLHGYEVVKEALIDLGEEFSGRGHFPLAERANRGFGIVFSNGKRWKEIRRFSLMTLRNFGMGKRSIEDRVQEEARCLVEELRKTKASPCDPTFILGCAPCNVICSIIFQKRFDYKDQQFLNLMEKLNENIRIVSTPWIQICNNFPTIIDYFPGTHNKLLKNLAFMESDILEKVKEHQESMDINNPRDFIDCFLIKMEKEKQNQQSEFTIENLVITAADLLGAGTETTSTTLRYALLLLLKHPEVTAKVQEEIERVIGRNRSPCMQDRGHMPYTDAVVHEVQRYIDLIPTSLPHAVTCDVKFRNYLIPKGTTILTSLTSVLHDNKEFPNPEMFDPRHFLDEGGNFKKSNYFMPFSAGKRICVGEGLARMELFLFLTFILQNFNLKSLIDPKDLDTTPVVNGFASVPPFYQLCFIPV
Sequence of hCYP P450 3A4 (P08684 whole entry): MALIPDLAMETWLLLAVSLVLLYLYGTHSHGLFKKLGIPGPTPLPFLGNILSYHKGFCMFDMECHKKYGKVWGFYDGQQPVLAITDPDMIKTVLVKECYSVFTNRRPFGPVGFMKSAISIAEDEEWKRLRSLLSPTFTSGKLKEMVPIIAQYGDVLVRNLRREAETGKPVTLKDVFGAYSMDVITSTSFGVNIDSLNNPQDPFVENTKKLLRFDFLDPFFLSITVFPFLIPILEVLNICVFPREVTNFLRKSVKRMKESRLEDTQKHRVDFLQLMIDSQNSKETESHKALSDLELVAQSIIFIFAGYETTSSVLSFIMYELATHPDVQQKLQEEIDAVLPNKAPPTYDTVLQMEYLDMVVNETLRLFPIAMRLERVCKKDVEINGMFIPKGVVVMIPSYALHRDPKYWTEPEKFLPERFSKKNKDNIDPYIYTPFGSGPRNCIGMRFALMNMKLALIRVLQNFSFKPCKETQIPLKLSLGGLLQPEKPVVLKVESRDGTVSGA
Sequence of hCYP P450 2C9 (P11712 whole entry): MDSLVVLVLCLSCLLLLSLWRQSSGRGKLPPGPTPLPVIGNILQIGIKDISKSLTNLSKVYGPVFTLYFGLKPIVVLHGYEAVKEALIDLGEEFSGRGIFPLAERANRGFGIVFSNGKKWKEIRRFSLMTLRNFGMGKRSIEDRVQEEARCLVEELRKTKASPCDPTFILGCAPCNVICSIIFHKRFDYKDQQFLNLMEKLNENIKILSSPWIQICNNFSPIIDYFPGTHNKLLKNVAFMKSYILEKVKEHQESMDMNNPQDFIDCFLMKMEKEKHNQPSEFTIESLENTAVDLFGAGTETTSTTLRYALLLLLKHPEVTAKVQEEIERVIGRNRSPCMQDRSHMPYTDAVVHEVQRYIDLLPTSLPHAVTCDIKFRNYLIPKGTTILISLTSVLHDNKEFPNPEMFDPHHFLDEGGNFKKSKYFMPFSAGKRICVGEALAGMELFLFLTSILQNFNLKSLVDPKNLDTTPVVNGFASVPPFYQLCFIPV

Structure (SMILES): OC[C@H]1O[C@@H](n2cnc3c(NC(C4CCC4)C4CCC4)nc(Cl)nc32)[C@H](O)C1O (stereo in doubt) [Compound 12, (2R,3R,4R,5R)-2-(2-Chloro-6-((dicyclobutylmethyl)amino)-9H-purin-9-yl)-5-(hydroxymethyl)tetrahydrofuran-3,4-diol]
hA1AR affinity relative to 9 (hA1AR [1]; lower affinity than 9): 8 fold | hA1AR selectivity compared to hA3AR (hA1AR [1]): 742 fold | Tb (wild-type C57BL/6J mice [2]): 35.5±0.8 °C

Structure (SMILES): OC[C@H]1O[C@@H](n2cnc3c(NC4CCCC4)ncnc32)[C@H](O)[C@@H]1O [Compound 1a]
ARs causing hypothermia (A1AR, A3AR [3]): A3AR > A1AR[30] | Tb (wild-type C57BL/6J mice [4]; 1 mg/kg ip.): 32.4±0.5 °C

Structure (SMILES): O[C@H]1[C@H](n2cnc3c(N[C@H]4C[C@H]5CC[C@@H]4C5)nc(Cl)nc32)[C@H]2C[C@@]2(CCl)[C@H]1O [Compound 31, (1S,2R,3S,4R,5S)-4-(6-(((1R,2S,4S)-Bicyclo[2.2.1]heptan-2-yl)amino)-2-chloro-9H-purin-9-yl)-1-(chloromethyl)bicyclo[3.1.0]hexane-2,3-diol]
hA1AR selectivity compared to hA3AR (hA1AR [1]): 10 fold | Effect on Tb in WT mice (wild-type C57BL/6J mice [2]): did not significantly induce hypothermia | Off-target, receptor: interactions found [5]: none

inhibition at 10 µM (hA2BAR): 38%
Structure (SMILES): CCOC(=O)[C@@]12C[C@@H]1[C@@H](n1cnc3c(NC(C4CCC4)C4CCC4)nc(Cl)nc31)[C@H](O)[C@@H]2O [Compound 35]

Structure (SMILES): NC(=O)c1ncn([C@H]2[C@H](O)[C@H](O)[C@]3(CO)C[C@H]23)n1 [Compound 40]
mA1AR selectivity compared to mA3AR (mA1AR): 25.2 nM (~400) fold | hA1AR affinity relative to 38 (hA1AR [1]; greater affinity than riboside 38): 15 fold

hA1AR affinity relative to 21 (hA1AR [1]; higher affinity than parent 21): 14 fold
Structure (SMILES): Nc1nc(Cl)nc2c1ncn2[C@H]1[C@H](O)[C@H](O)[C@]2(CCl)C[C@H]12 [Compound 22]

Structure (SMILES): O[C@@H]1[C@H](O)[C@@H]2C[C@@H]2[C@H]1n1cnc2c(NC(C3CCCC3)C3CCCC3)nc(Cl)nc21 [Compound 20]
A1AR % inhibition (hA1AR [6]): 34±3% (h)

Structure (SMILES): O[C@@H]1[C@H](O)[C@@H](CCl)O[C@H]1n1cnc2c(NC3C[C@H]4CC[C@@H]3C4)ncnc21 (stereo partly drawn) [Compound 4]
ARs causing hypothermia (A1AR, A3AR [3]): A1AR > A3AR[30] | Tb (wild-type C57BL/6J mice [4]; 3 mg/kg ip.): 32.2±1.3 °C

Off-target, receptor: interactions found [5]: none
Structure (SMILES): OC[C@@]12C[C@@H]1[C@@H](n1cnc3c(N[C@H]4C[C@H]5CC[C@@H]4C5)nc(Cl)cc31)[C@H](O)[C@@H]2O [Compound 30]

Structure (SMILES): OC[C@@]12C[C@@H]1[C@@H](n1cnc3c(NC(C4CCC4)C4CCC4)ncnc31)[C@H](O)[C@@H]2O [Compound 24, (1R,2R,3S,4R,5S)-4-(6-((Dicyclobutylmethyl)amino)-9H-purin-9-yl)-1-(hydroxymethyl)bicyclo[3.1.0]hexane-2,3-diol]
A1AR selectivity (hA1AR [1]; abstract, species and comparator not stated): ~ 400 fold | Effect on Tb after icv. administration (mice; 1.67 μg/mouse icv. (= […])): reduced Tb only slightly | Tb reached after icv. administration (mice): ~ 24 °C

inhibition at 10 µM (hA2BAR): 24%
Structure (SMILES): O[C@@H]1[C@H](O)[C@@H]2C[C@@H]2[C@H]1n1cnc2c(NC(C3CCC3)C3CCC3)nc(Cl)nc21 [Compound 19]

inhibition at 10 µM (hA2BAR): 39%
Structure (SMILES): NC(=O)c1ncn([C@@H]2O[C@H](CO)[C@@H](O)[C@H]2O)n1 [Compound 38, ribavirin, reference compound]
Ki (bovine A1AR): 86 µM

Structure (SMILES): CCNC(=O)[C@H]1O[C@@H](n2cnc3c(N)ncnc32)[C@H](O)[C@@H]1O [Compound 16, reference compound]
Off-target, receptor: interactions found [5]: none

Structure (SMILES): OC[C@H]1O[C@@H](n2cnc3c(NC4CCCC4)nc(Cl)nc32)[C@H](O)[C@@H]1O [Compound 2]
Effect on blood pressure (anesthetized rat): sustained rise in blood pressure

Structure (SMILES): OC[C@H]1O[C@@H](n2cnc3c(NC(C4CCC4)C4CCC4)ncnc32)[C@H](O)C1O (stereo in doubt) [Compound 9, (2R,3R,4R,5R)-2-(6-((Dicyclobutylmethyl)amino)-9H-purin-9-yl)-5-(hydroxymethyl)tetrahydrofuran-3,4-diol]
Stability in simulated gastric fluid [7]: completely stable | Clearance in liver microsomes (Rat liver microsomes): medium clearance | Clearance in liver microsomes (Mouse liver microsomes): medium clearance | Stability in plasma (Stability in rat plasma): completely stable | Receptor dependence of hypothermia (A1AR, A3AR [8]): dependent on A1AR, without a contribution from A3AR | ARs causing hypothermia (A1AR, A3AR [8]): A1AR selective (Figure 2) | Inhibition of 1A2 CYP isozyme (1A2 CYP isozyme): no inhibition | Tb (wild-type C57BL/6J mice [2]): 33.0±0.7 °C | Effect on Tb in WT mice (wild-type C57BL/6J mice [2]): produced hypothermia and hypoactivity | Ki (hA2BAR): 8.62 µM | Stability in simulated intestinal fluid [9]: completely stable | Stability in plasma [10]: completely stable | Toxicity in HEP-G2 hepatocytes (HEP-G2 hepatocytes): nontoxic | Clearance in liver microsomes (Human liver microsomes): medium clearance | Duration of hypothermia after icv. administration (mice; 1.67 μg/mouse icv. (= […])): ~ 10 h | Effect on Tb after icv. administration (mice; 1.67 μg/mouse icv. (= […])): deep hypothermia | Tb reached after icv. administration (mice): ~ 24 °C | Inhibition of 2D6 CYP isozyme (hCYP P450 2D6): no inhibition | Inhibition of 2C9 CYP isozyme (hCYP P450 2C9): weak inhibition | Stability in plasma [11]: completely stable | Inhibition of 3A4 CYP isozyme (hCYP P450 3A4): no inhibition | Permeability in CACO-2 cells (CACO-2 cells): high permeability | Inhibition of 2C19 CYP isozyme (2C19 CYP isozyme): no inhibition | maximal concentration, molar [12]: 310 nM

Structure (SMILES): O[C@H]1[C@H](n2cnc3c(NC(C4CCC4)C4CCC4)ncnc32)[C@H]2C[C@@]2(CCl)[C@H]1O [Compound 26, (1S,2R,3S,4R,5S)-1-(Chloromethyl)-4-(6-((dicyclobutylmethyl)amino)-9H-purin-9-yl)bicyclo[3.1.0]hexane-2,3-diol]
mA1AR selectivity compared to mA3AR (mA1AR): 890 fold | hA1AR selectivity compared to hA3AR (hA1AR [1]): ~ 300 fold

Off-target, receptor: interactions found [5]: none
Structure (SMILES): CNC(=O)[C@H]1O[C@@H](n2cnc3c(N)ncnc32)[C@H](O)[C@@H]1O [Compound 15, reference compound]

Structure (SMILES): OC[C@@]12C[C@@H]1[C@@H](n1cnc3c(N[C@H]4C[C@H]5CC[C@@H]4C5)nc(Cl)nc31)[C@H](O)[C@@H]2O [Compound 29, (1R,2R,3S,4R,5S)-4-(6-(((1R,2S,4S)-Bicyclo[2.2.1]heptan-2-yl)amino)-2-chloro-9H-purin-9-yl)-1-(hydroxymethyl)bicyclo[3.1.0]hexane-2,3-diol]
hA1AR selectivity compared to hA3AR (hA1AR [1]): 12 fold | Receptor dependence of hypothermia (A1AR, A3AR [8]): via both central A1AR and peripheral A3AR | ARs causing hypothermia (A1AR, A3AR [8]): A3AR > A1AR (Figure 2) | Effect on Tb in WT mice (wild-type C57BL/6J mice [2]): hypothermic effect

Structure (SMILES): O[C@@H]1[C@H](O)[C@@H](CCl)O[C@H]1n1cnc2c(NC(C3CCC3)C3CCC3)ncnc21 [Compound 10, (2S,3S,4R,5R)-2-(Chloromethyl)-5-(6-((dicyclobutylmethyl)amino)-9H-purin-9-yl)tetrahydrofuran-3,4-diol]
mA1AR selectivity compared to mA3AR (mA1AR): 2970 fold and > 2000 fold | hA1AR selectivity compared to hA3AR (hA1AR [1]): 3390 fold
